Where two headings read alike, the source gives them in different places.
Assays:
[1] = target: T1, Human Indoleamine 2,3-dioxygenase (IDO) (Homo sapiens, UniProt P14902); test: Human IDO enzymatic assay (kynurenine level); type: biochemical; conditions: 6 nM IDO, 10 μM L-Trp; geometric mean; read-out: IDO1 GMean: IC50 (μM) (Biochemical Assay)
T1 construct: His tag (N); made in house; host or cells: E. coli
Summary of the method: (§1)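 Compound is mixed with His-tagged enzyme from E. coli in pH 6.5 phosphate buffer containing ascorbate, methylene blue and catalase, at room temperature. IDO uses 6 nM enzyme and 10 μM Trp for 20 min. TDO uses 1 nM enzyme and 350 μM Trp for 70 min. TCA stops the reaction, and IC50 is derived from kynurenine levels.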

[2] = target: T2, Human Tryptophan 2,3-dioxygenase (TDO) (Homo sapiens, UniProt P48775); test: Human TDO enzymatic assay (kynurenine level); type: biochemical; conditions: 1 nM TDO, 350 μM L-Trp; geometric mean; read-out: TDO GMean: IC50 (μM) (Biochemical Assay)
T2 construct: His tag (N); made in house; host or cells: E. coli
Summary of the method: as §1

[3] = target: T3, human IDO (IDO1-expressing HEK293 cells) (Homo sapiens, UniProt P14902); test: Cell based kynurenine assay, IDO1-expressing HEK293 cell clones; conditions: IDO1-expressing HEK293 cells, geometric mean, read-out: HEK293 IDO1 Kynurenine GMean IC50 (μM) (Cellular Assay)
T3 construct: expressed in transfected cells
Summary of the method: (§2)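 HEK293 stable clones (hIDO1 or hTDO, CMV-driven; G418-selected); 2.5×10^4 cells/well; compound serial dilution, 24 h, 37 °C, 5% CO2; supernatant kynurenine; IC50 by nonlinear fit.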

[4] = target: T4, human TDO (TDO-expressing HEK293 cells) (Homo sapiens, UniProt P48775); test: Cell based kynurenine assay, TDO-expressing HEK293 cell clones; conditions: TDO-expressing HEK293 cells, geometric mean, read-out: HEK293 TDO Kynurenine GMean IC50 (μM) (Cellular Assay)
T4 construct: expressed in transfected cells
Summary of the method: as §2

T1 sequence (P14902 whole entry): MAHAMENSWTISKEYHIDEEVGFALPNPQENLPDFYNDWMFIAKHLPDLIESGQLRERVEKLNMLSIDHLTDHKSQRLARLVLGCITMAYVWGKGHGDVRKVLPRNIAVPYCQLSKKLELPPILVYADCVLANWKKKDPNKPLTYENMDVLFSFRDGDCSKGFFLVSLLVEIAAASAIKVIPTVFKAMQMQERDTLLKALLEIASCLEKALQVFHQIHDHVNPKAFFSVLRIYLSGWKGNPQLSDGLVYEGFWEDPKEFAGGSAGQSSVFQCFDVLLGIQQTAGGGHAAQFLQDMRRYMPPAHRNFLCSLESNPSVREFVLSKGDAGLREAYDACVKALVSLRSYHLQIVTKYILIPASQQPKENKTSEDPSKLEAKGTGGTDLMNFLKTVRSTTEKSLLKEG
T3 sequence (P14902 whole entry): as above
T2 sequence (P48775 whole entry): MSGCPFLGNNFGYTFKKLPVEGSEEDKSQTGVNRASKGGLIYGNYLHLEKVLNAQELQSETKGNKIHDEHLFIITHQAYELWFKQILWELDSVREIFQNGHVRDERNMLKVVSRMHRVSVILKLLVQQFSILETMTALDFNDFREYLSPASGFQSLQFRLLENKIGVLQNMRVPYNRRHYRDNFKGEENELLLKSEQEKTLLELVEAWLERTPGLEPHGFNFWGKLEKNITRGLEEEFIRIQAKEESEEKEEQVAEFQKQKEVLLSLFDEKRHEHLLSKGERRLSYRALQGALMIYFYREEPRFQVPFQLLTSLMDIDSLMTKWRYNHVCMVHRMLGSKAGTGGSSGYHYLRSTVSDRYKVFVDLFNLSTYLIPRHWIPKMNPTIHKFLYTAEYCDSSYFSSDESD
T4 sequence (P48775 whole entry): as above

SMILES	IC50 [1] [µM]	IC50 [2] [µM]	IC50 ([3]; 24 hours) [µM]	IC50 ([4]; 24 hours) [µM]	IC50 ([3]; 24 hours incubation) [µM]	IC50 ([4]; 24 hours incubation) [µM]
CC(C)(C)OC(=O)N1CC2CCC(C1)C2CC(O)c1cc(Cl)cc2cn[nH]c12 (centres unmarked) [Compound P-0273, tert-butyl 8-(2-(5-chloro-1H-indazol-7-yl)-2-hydroxyethyl)-3-azabicyclo[3.2.1]octane-3-carboxylate]	0.0001 to 10	0.0001 to 10			0.0001 to 10	0.0001 to 10
CC(=O)N1CCC(C(C)(C)C(O)c2cc(Cl)cc3cn[nH]c23)CC1 (centres unmarked) [Compound P-0310, 1-(4-(1-(5-chloro-1H-indazol-7-yl)-1-hydroxy-2-methylpropan-2-yl)piperidin-1-yl)ethan-1-one]	0.0001 to 10	0.0001 to 10			0.0001 to 10	0.0001 to 10
CCCNC(=O)N1CCC(C(C)(C)[C@H](O)c2cc(Cl)cc3cn[nH]c23)CC1 [Compound P-0567, (S)-4-(1-(5-chloro-1H-indazol-7-yl)-1-hydroxy-2-methylpropan-2-yl)-N-propylpiperidine-1-carboxamide]	0.0001 to 10	0.0001 to 10	0.0001 to 10	0.0001 to 10		
CC(C)(C1CCN(C(=O)Nc2cccnc2)CC1)[C@@H](O)c1cc(Cl)cc2cn[nH]c12 [Compound P-0430, (R)-4-(1-(5-chloro-1H-indazol-7-yl)-1-hydroxy-2-methylpropan-2-yl)-N-(pyridin-3-yl)piperidine-1-carboxamide]	0.0001 to 10	0.0001 to 10	0.0001 to 10	0.0001 to 10		
CC(C)(C1CCCCC1)C(O)c1cc(Cl)cc2cn[nH]c12 (centres unmarked) [Compound P-0008, 1-(5-chloro-1H-indazol-7-yl)-2-cyclohexyl-2-methylpropan-1-ol]	0.0001 to 10	0.0001 to 10			0.0001 to 10	0.0001 to 10
CNC(=O)N1CCC(C(C)(C)C(O)c2cc(Cl)cc3cn[nH]c23)CC1 (centres unmarked) [Compound P-0314, 4-(1-(5-chloro-1H-indazol-7-yl)-1-hydroxy-2-methylpropan-2-yl)-N-methylpiperidine-1-carboxamide]	0.0001 to 10	0.0001 to 10			0.0001 to 10	0.0001 to 10
COC12CCC(C(O)c3cc(Cl)cc4[nH]ncc34)(CC1)CC2 (centres unmarked) [Compound P-0348, (6-chloro-1H-indazol-4-yl)(4-methoxybicyclo [2.2.2]octan-1-yl)methanol]	0.0001 to 10	0.0001 to 10			> 10	0.0001 to 10
CC(C)(C)OC(=O)N1CCC(C(C)(C)C(O)c2cc(Cl)cc3cn[nH]c23)CC1 (racemic) [Compound P-0163, tert-butyl 4-(1-(5-chloro-1H-indazol-7-yl)-1-hydroxy-2-methylpropan-2-yl)piperidine-1-carboxylate]	0.0001 to 10	0.0001 to 10			0.0001 to 10	0.0001 to 10
COC(=O)N1CCC(C(C)(C)C(O)c2cc(Cl)cc3cn[nH]c23)CC1 (centres unmarked) [Compound P-0321, methyl 4-(1-(5-chloro-1H-indazol-7-yl)-1-hydroxy-2-methylpropan-2-yl)piperidine-1-carboxylate]	0.0001 to 10	0.0001 to 10			0.0001 to 10	0.0001 to 10
CC(C)NS(=O)(=O)N1CCC(C(F)(F)C(O)c2cc(Cl)cc3cn[nH]c23)CC1 (centres unmarked) [Compound P-0332, 4-(2-(5-chloro-1H-indazol-7-yl)-1,1-difluoro-2-hydroxyethyl)-N-isopropylpiperidine-1-sulfonamide]	0.0001 to 10	0.0001 to 10			0.0001 to 10	0.0001 to 10
COc1cc(CC(=O)N2CCC(C(F)(F)C(O)c3cc(Cl)cc4cn[nH]c34)CC2)ccn1 (centres unmarked) [Compound P-0526, 1-(4-(2-(5-chloro-1H-indazol-7-yl)-1,1-difluoro-2-hydroxyethyl)piperidin-1-yl)-2-(2-methoxypyridin-4-yl)ethan-1-one]	0.0001 to 10	0.0001 to 10	0.0001 to 10	0.0001 to 10		
CC(=O)N1C[C@H]2CC[C@@H](C1)[C@H]2C(F)(F)C(O)c1c(F)c(Cl)cc2cn[nH]c12 (stereo partly drawn) [Compound P-0138, 1-((1R,5S,8s)-8-(2-(5-chloro-6-fluoro-1H-indazol-7-yl)-1,1-difluoro-2-hydroxyethyl)-3-azabicyclo[3.2.l]octan-3-yl)ethan-l-one]	0.0001 to 10	0.0001 to 10			0.0001 to 10	0.0001 to 10
CC1(C(O)c2cc(Cl)cc3cncn23)CCCCC1 (centres unmarked) [Compound P-0083, (7-Chloroimidazo[1,5-a]pyridin-5-yl)(1-methylcyclohexyl)methanol]	0.0001 to 10	0.0001 to 10			0.0001 to 10	0.0001 to 10
OC(c1cc(Cl)cc2cn[nH]c12)C(C1CCC1)C1CCC1 (centres unmarked) [Compound P-0203, 1-(5-chloro-1H-indazol-7-yl)-2,2-dicyclobutylethan-1-ol]	0.0001 to 10	0.0001 to 10			0.0001 to 10	0.0001 to 10
CC(C)(C1CCN(C(=O)N[C@H]2CC[C@H](C)CC2)CC1)C(O)c1cc(Cl)cc2cn[nH]c12 (some centres unmarked) [Compound P-0449, 4-(1-(5-chloro-1H-indazol-7-yl)-1-hydroxy-2-methylpropan-2-yl)-N-((1r,4r)-4-methylcyclohexyl) piperidine-1-carboxamide]	0.0001 to 10	0.0001 to 10	0.0001 to 10	0.0001 to 10		
CC(C)(C1CCN(C(=O)OCC(F)(F)F)CC1)C(O)c1cc(Cl)cc2cn[nH]c12 (centres unmarked) [Compound P-0177, 2,2,2-trifluoroethyl 4-(1-(5-chloro-1H-indazol-7-yl)-1-hydroxy-2-methylpropan-2-yl)piperidine-1-carboxylate]	0.0001 to 10	0.0001 to 10			0.0001 to 10	0.0001 to 10

More lines, now with the values ahead:

IC50 [1] [µM]	IC50 [2] [µM]	IC50 ([3]; 24 hours) [µM]	IC50 ([4]; 24 hours) [µM]	IC50 ([3]; 24 hours incubation) [µM]	IC50 ([4]; 24 hours incubation) [µM]	SMILES
0.0001 to 10	0.0001 to 10	0.0001 to 10	0.0001 to 10			CCOC(=O)N1CCC(C(C)(C)[C@H](O)c2cc(Cl)cc3cn[nH]c23)CC1 [Compound P-0541, ethyl (S)-4-(1-(5-chloro-1H-indazol-7-yl)-1-hydroxy-2-methylpropan-2-yl)piperidine-1-carboxylate]
0.0001 to 10	0.0001 to 10	0.0001 to 10	0.0001 to 10			CN(C)CC(=O)N1CCC(C(C)(C)C(O)c2cc(Cl)cc3cn[nH]c23)CC1 (centres unmarked) [Compound P-0455, 1-(4-(1-(5-chloro-1H-indazol-7-yl)-1-hydroxy-2-methylpropan-2-yl)piperidin-1-yl)-2-(dimethylamino) ethan-1-one]
0.0001 to 10	0.0001 to 10			0.0001 to 10	0.0001 to 10	OC(c1cc(Cl)cc2cn[nH]c12)C1(C2CC2)CC1 (centres unmarked) [Compound P-0225, [1,1′-bi(cyclopropan)]-1-yl(5-chloro-1H-indazol-7-yl)methanol]
0.0001 to 10	0.0001 to 10			0.0001 to 10	0.0001 to 10	CC(C)(C1CCN(C(=O)c2ccc(C(F)(F)F)nc2)CC1)C(O)c1cc(Cl)cc2cn[nH]c12 (centres unmarked) [Compound P-0363, (4-(1-(5-chloro-1H-indazol-7-yl)-1-hydroxy-2-methylpropan-2-yl)piperidin-1-yl)(6-(trifluoromethyl)pyridin-3-yl)methanone]
0.0001 to 10	0.0001 to 10			0.0001 to 10	0.0001 to 10	CC(C)(c1ccccc1)C(O)c1cc(Cl)cc2cn[nH]c12 (centres unmarked) [Compound P-0027, 1-(5-chloro-1H-indazol-7-yl)-2-methyl-2-phenylpropan-1-ol]
0.0001 to 10	0.0001 to 10			0.0001 to 10	0.0001 to 10	N#CC1CC=C(c2cc(Cl)cc3cn[nH]c23)CC1 (stereo not drawn) [Compound P-0105, 4-(5-chloro-1H-indazol-7-yl)cyclohex-3-ene-l-carbonitrile]
0.0001 to 10	0.0001 to 10	0.0001 to 10	0.0001 to 10			CC(C)(C1CCN(C(=O)CC#N)CC1)[C@@H](O)c1cc(Cl)cc2cn[nH]c12 [Compound P-0436, (R)-3-(4-(1-(5-chloro-1H-indazol-7-yl)-1-hydroxy-2-methylpropan-2-yl)piperidin-1-yl)-3-oxopropanenitrile]
0.0001 to 10	0.0001 to 10			0.0001 to 10	> 10	CC1(C(O)c2c(Cl)ccn3cncc23)CCCCC1 (centres unmarked) [Compound P-0098, (7-chloroimidazo[1,5-a]pyridin-8-yl)(1-methylcyclohexyl)methanol]
0.0001 to 10	0.0001 to 10			0.0001 to 10	0.0001 to 10	OC(c1cc(Cl)cc2cn[nH]c12)C1CCCCC1 (centres unmarked) [Compound P-0002, (5-chloro-1H-indazol-7-yl)(cyclohexyl)methanol]
0.0001 to 10	0.0001 to 10	0.0001 to 10	0.0001 to 10			CC(C)(C1CCN(C(=O)NCC2CC2)CC1)C(O)c1cc(Cl)cc2cn[nH]c12 (centres unmarked) [Compound P-0473, 4-(1-(5-chloro-1H-indazol-7-yl)-1-hydroxy-2-methylpropan-2-yl)-N-(cyclopropylmethyl) piperidine-1-carboxamide]

— patent US10508085B2, “Compounds and methods for IDO and TDO modulation, and indications therefor” (Plexxikon Inc., priority 2016, dated 2019)
